Experiments:
[1] = test system: passiven cutanen Anaphylaxie (PCA); experiment: Passive cutaneous anaphylaxis (PCA) in rats sensitised with ovalbumin antiserum; type: in vivo, Ratte; settings: for ED50: Rattus norvegicus, dose reducing diameter of dye spots by 50 % vs untreated controls, read-out: Hemmung der PCA Ratte ED 50 %; for ED50 / Hemmung der PCA Ratte R.W. (Relative Wirksamkeit) / mal wirksamer als die Vergleichsverbindung V1: oral administration; for inhibition in vivo at 1 mg/kg: ip, read-out: % Hemmung X ± SX; for inhibition in vivo at 1 mg/kg / % Hemmung X ± SX: intraperitoneal, 1 mg/kg test substance, mean ± SX; for Hemmung der PCA Ratte R.W. (Relative Wirksamkeit): relative to V1 = 1,00
Protocol: Die antiallergische Wirkung wurde an Ratten getestet. Zur ' Prüfung wurde das Modell der passiven cutanen Anaphylaxie (PCA) verwendet.
Narkotisierte männliche Ratten (100 bis 140 g) werden durch intradermale Injektion (rasierte Rückenhaut) von 0,1 ml eines Ovalbumin-Antiserums sensibilisiert. Nach einer Sensibilisierungsperiode von ca. 48 Stunden erfolgt die Behandlung (intraperitoneale bzw. orale Applikation) mit unterschiedlichen Dosierungen (10 Tiere/Dosis) der Prüfsubstanzen. 15 bis 20 Minuten nach der Behandlung wird eine Antigen/Evansblau-Hischung (10 mg/kg Ovalbumin in 2 %iger Evansblau-Lösung) den Versuchstieren intravenös injiziert. 30 Minuten später werden die Tiere getötet, die Rückenhaut abgezogen und auf der inneren Oberfläche der Durchmesser der kreisförmigen Blaufärbung gemessen. Die Größe der Farbflecke unbehandelter Kontrolltiere ist standardisierbar. Antiallergisch wirksame Substanzen verkleinern dosisabhängig den Durchmesser der Farbflecke. Als ED 50 % wird die Dosis angegeben die im Vergleich zu medikamentös unbehandelten Kontrolltieren den Durchmesser der Farbflecke um 50 % herabsetzt.

[2] = Acute toxicity, mouse, intraperitoneal; settings: in vivo, ip, read-out: LD 50 Maus i.p.
Text: (§1) Außer der antiallergischen Wirkung wurde die akute Toxizität an Gruppen von je 2 NMRI-Mäusen, Gewicht 20 bis 26 g, bei intraperitonealer Applikation und an je 2 Sprangue--Dawley-Ratten, Gewicht 120 bis 150 g, bei oraler Applikation ermittelt. Die Bestimmung der LD 50 erfolgte an Gruppen von je 10 NMRI-Mäusen, Gewicht 20 bis 26 g,nach intraperitonealer Applikation. Die Nachbeobachtungszeit betrug 14 Tage.

[3] = Acute toxicity, rat, oral; settings: in vivo, read-out: LD 50 Ratte p.o.
Text: as §1

[4] = Water solubility (remark in synthesis example); type: physicochemical
[5] = NMRI mice, intraperitoneal, 14 days observation
[6] = Sprague-Dawley rats, oral, 14 days observation

**Q.** Which ED50 [1] does the source give for `CCOC(=O)C(=O)Nc1nc2c(s1)CCC2` [Beispiel 1, N-(Cyclopentano[1,2-d]thiazol-2-yl)-oxamidsäureethylester] here?
**A.** 1.59 mg/kg

**Q.** And the inhibition in vivo at 1 mg/kg ([1]; PCA rat)?
**A.** 25 ± 4.7%

**Q.** What about the “Hemmung der PCA Ratte R.W. (Relative Wirksamkeit)” value [1] of the same compound?
**A.** 5,40

**Q.** And the LD50 at 336 h [2, 5]?
**A.** ~464 mg/kg

**Q.** What about the LD50 at 336 h [3, 6] of the same compound?
**A.** > 2150 mg/kg

**Q.** For `CCOC(=O)C(=O)Nc1nc2c(s1)CCCC2` [Beispiel 2, N-(Cyclohexano[1,2-d]thiazol-2-yl)-oxamidsäureethylester], which inhibition in vivo at 1 mg/kg ([1]; PCA rat) is on record?
**A.** 61 ± 8.8%

**Q.** What about the “mal wirksamer als die Vergleichsverbindung V1” value ([1]; PCA rat) of the same compound?
**A.** 11.9

**Q.** What about the “Hemmung der PCA Ratte R.W. (Relative Wirksamkeit)” value [1] of the same compound?
**A.** 11,90

**Q.** What about the LD50 at 336 h [2] of the same compound?
**A.** 422 mg/kg

**Q.** What about the LD50 at 336 h ([3]; po) of the same compound?
**A.** > 2150 mg/kg

**Q.** Which inhibition in vivo at 1 mg/kg ([1]; PCA rat) does the source give for `CCOC(=O)C(=O)Nc1nc2c(s1)C(C)(C)CC(C)(C)C2` [Beispiel 4, N-(5,5,7,7-Tetramethylcyclohexano[1,2-d]thiazol-2-yl)-oxamidsäureethylester] here?
**A.** 15 ± 3.5%

**Q.** With `CCOC(=O)C(=O)Nc1nc2c(s1)CCCCC2` [Beispiel 5, N-(Cycloheptano[1,2-d]thiazol-2-yl)oxamidsäureethylester] as the compound, how does the inhibition in vivo at 1 mg/kg ([1]; PCA rat) read?
**A.** 34 ± 6%

**Q.** Which results are given for `O=C(O)C(=O)Nc1nc2c(s1)CCCC2` [Beispiel 6, N-(Cyclohexano[1,2-d]thiazol-2-yl)-oxamidsäure]?
**A.** ED50 [1]: 3.09 mg/kg; inhibition in vivo at 1 mg/kg ([1]; PCA rat): 63 ± 6.6%; mal wirksamer als die Vergleichsverbindung V1 ([1]; PCA rat): 2,8; Hemmung der PCA Ratte R.W. (Relative Wirksamkeit) [1]: 2,78; LD50 at 336 h [2]: ~464 mg/kg; LD50 at 336 h ([3]; po): > 2150 mg/kg

**Q.** For `CC(C)(C)OC(=O)C(=O)Nc1nc2c(s1)CCCC2` [Beispiel 7], which ED50 [1] is on record?
**A.** 2.35 mg/kg

**Q.** What about the inhibition in vivo at 1 mg/kg ([1]; PCA rat) of the same compound?
**A.** 33 ± 7.9%

**Q.** And the “Hemmung der PCA Ratte R.W. (Relative Wirksamkeit)” value [1]?
**A.** 3,65

**Q.** And the LD50 at 336 h [3, 6]?
**A.** > 2150 mg/kg

**Q.** For `O=C(O)c1cc(=O)c2c(OCC(O)COc3cccc4oc(C(=O)O)cc(=O)c34)cccc2o1` [Cromolyne, reference compound], which “antiallergische Wirkung nach oraler Applikation” value ([1]; PCA rat, up to 100 mg/kg p.o.) is on record?
**A.** unwirksam

**Q.** And the ED50 [1]?
**A.** 100 mg/kg

**Q.** What about the inhibition in vivo at 1 mg/kg ([1]; PCA rat) of the same compound?
**A.** 21 ± 3.6%

**Q.** And the LD50 at 336 h [3, 6]?
**A.** > 2150 mg/kg

**Q.** What does the source list for `CCOC(=O)C(=O)Nc1nc2ccccc2s1` [V1, N-Benzthiazol-2-yl-oxamidsäureethylester, reference compound]?
**A.** ED50 [1]: 8.6 mg/kg; inhibition in vivo at 1 mg/kg ([1]; PCA rat): 26 ± 6.5%; Hemmung der PCA Ratte R.W. (Relative Wirksamkeit) [1]: 1,00; LD50 at 336 h [2, 5]: ~464 mg/kg; LD50 at 336 h [3, 6]: > 2150 mg/kg

**Q.** With “N-(6-tert.-Butylcyclohexano[1,2-d]thiazol-2-yl)-oxamidsäureethylester [Beispiel 3]” as the compound, how does the “% Hemmung X ± SX” value ([1]; PCA rat) read?
**A.** 14 ± 4,1%

**Q.** With “N-(Cyclohexano[1,2-d]thiazol-2-yl)-oxamidsäure-ethanol- aminsalz [Beispiel 8]” as the compound, how does the “% Hemmung X ± SX” value ([1]; PCA rat) read?
**A.** 73 ± 7,5%

**Q.** What about the Wasserlöslichkeit [4] of the same compound?
**A.** gut wasserlöslichen

— patent EP0044443A1, “Cycloalkano-thiazolyloxamidic-acid derivatives, process for their preparation and pharmaceutical compositions containing them” (BASF Aktiengesellschaft, priority 1980, dated 1982)
